According to paper PMC5267425, “Identification of small molecule modulators of HIV-1 Tat and Rev protein accumulation” (Retrovirology, 2017):

How the values were obtained:
[1] = XTT assay, SupT1 24STNLESG cells; assay type: cell-based; details: human
Procedure: Additional file 1: Figure S1. 791 and 833 Suppress HIV-1 Gene Expression in SupT1 24NESLG Cell Line. a Schematic of HIV-1 provirus used to generated the stably transduced SupT1 cell line. b Effect of 791 and 833 on Gag expression in SupT1 NLESG cells. Cells were treated with indicated concentrations of 791/833 then HIV-1 expression induced by PMA addition. Media harvested after 24 h was subsequently assayed using Gag (p24) ELISA. Cell viability was measured by an XTT assay. 892 was not active in this cell line at the concentrations tested Additional file 2: Figure S7. Effect of compounds on CEM-GXR cell viability. Evaluation of 791, 833, and 892 on CEM-GXR cell viability in the Guava ViaCount assay. Cells were analyzed after 24 h incubation with the compounds at the indicated concentrations ranging between 0–47 μM (791), 0–5 μM (833), or 0–62.5 μM (892). Results are expressed as the percentage (%) of viable cells relative to DMSO treatment ±SEM of two independent experiments performed in triplicate. […] Images are cropped to show a representative field of view. b The dose range of the compounds which inhibit HIV-1 GagGFP expression in HeLa rtTA HIVGagGFP C7 cells was measured by mean fluorescence intensity and expressed relative to fluorescence intensity in DMSO-treated samples (N ≥ 3, *p ≤ 0.05, **p ≤ 0.01, and ***p ≤ 0.001). […]

HeLa rtTA HIV∆Mls cells = assay: XTT cell metabolism/viability assay, HeLa; assay type: cell-based; details: for cell viability at dose required to reduce Gag expression by >80%: XTT and Trypan blue exclusion, 791 20 µM, 833 10 µM
Procedure: Effects of compound treatment on cellular metabolism was assessed by an XTT-based in vitro toxicology assay kit (Sigma-Aldrich) or Trypan blue exclusion (Life Technologies) as proxy for degree of cytotoxicity and expressed relative to DMSO control treatment. For measurement of cell viability using XTT, culture media was removed after 24, 72, and 96 h of compound treatment, replaced with 20% XTT solution and incubated at 37 °C in a 5% CO2 humidified incubator for 2–6 h, and relative cell viability was measured in compound treated cells relative to DMSO-treated cells. Cell viability measurements in CEM-GXR cells are described above.

PBMCs = assay: Trypan blue exclusion, PBMCs; assay type: cell-based, human; details: PBMCs
Procedure: To examine the effect of compounds on viral replication, studies were carried out in peripheral blood mononuclear cells (PBMCs). PBMCs were isolated from healthy (HIV-uninfected) volunteer blood donors as described by Dobson-Belaire et al.. Informed consent was obtained from participants in accordance with the guidelines for conduct of clinical research at the University of Toronto and St. Michael’s Hospital, Toronto, Ontario, Canada. Stored PBMCs were thawed, washed with RPMI 1640 complete medium and cultured in RPMI 1640 complete medium containing 2 μg/mL of PHA-L (Sigma-Aldrich) and 20 U/mL of IL-2 (BD Pharmingen) for 72 h. Subsequently, cells were counted and a portion of the cells was separated to another tube for uninfected control treatments. The remaining PBMCs were resuspended in media containing HIV-1 BaL at a multiplicity of infection (MOI) of approximately 0.01 and infected by spinoculation, following which cells were washed twice with room temperature RPMI 1640 complete medium and resuspended to a concentration of 5 × 10^5 cells/mL in complete RPMI 1640 containing 20 U/mL of IL-2. Compounds were added to infected PBMCs or uninfected control PBMCs. Azidothymidine (AZT, Sigma-Aldrich) was used as control treatment at a final concentration of 3.74 μM. On day 4 post infection, culture medium was replenished with the compounds and IL-2 in fresh complete RPMI 1640. On days 2, 4, 6 and 8 post infection, culture supernatant was harvested, virus lysed by adjusting to 1% TritonX-100 and stored at −20 °C for p24 antigen ELISA. A fraction of the culture was harvested to assess percent cell viability by trypan blue exclusion using Glasstic slides (Kova). Relative percent cell viability in compound treated samples versus DMSO-control treated samples was calculated as follows: (total viable cells/total cells)compound/(total viable cells/total cells)DMSO.

Structure (SMILES)	CC50 at 24 h [1] [µM]	toxicity on extended culture (cell proliferation by XTT) (HeLa rtTA HIV∆Mls cells; 1, 3 and 4 days post-treatment, in comparison to 833 and 892 (Figure S5))	cell viability at dose required to reduce Gag expression by >80% (HeLa rtTA HIV∆Mls cells)	mitochondrial function by XTT (HeLa rtTA HIV∆Mls cells; up to 10 µM)	toxicity at concentrations required to block HIV-1 replication (PBMCs)
Cc1cc(NCc2cccnc2)n2ncc(-c3ccc(Cl)cc3)c2n1 [Compound 791, 3-(4-chlorophenyl)-5-methyl-N-(3-pyridinylmethyl)pyrazolo[1,5-a]pyrimidin-7-amine]	> 60	reduced toxicity	not affected		
O=C(NC(=S)NNC(=O)c1ccccc1O)c1ccc(-c2ccccc2)cc1 [Compound 833, N-([2-(2-hydroxybenzoyl)hydrazino]carbonothioyl}-4-biphenylcarboxamide]	> 20		not affected	some reduction in mitochondrial function	displayed toxicity
COc1ccc(C=NNC(=O)c2ccccc2O)cc1O [Compound 892, 2-hydroxy-N′-(3-hydroxy-4-methoxybenzylidene)benzohydrazide]					displayed toxicity
